Series [1] deals with soybean seedlings. The series can be described thus: Soybean seedling response to spot infiltrated auxins and conjugates. For 1st trifoliate leaf curl: key: 0 = no phenotype; +/− = threshold. For Chlorotic lesion @ app. Pnt: key: 0 = no phenotype; +/− = threshold. Further details: 1st trifoliate leaf curl / Epinasty score: key: 0 = no phenotype; +/− = threshold. It is filed as in vivo. The settings on record: for 1st trifoliate leaf curl / Chlorotic lesion @ app. Pnt / Epinasty score: spot infiltration. How it is done:
Conjugate forms of auxinic compounds when applied through spot infiltration, a needleless method to introduce exogenous agents into plant cells. Initially, various concentrations of analytical grade (98%+pure) IAA, 2,4-D, and dicamba were prepared as solutions that were applied directly to uni-foliate leaves of 9 day old soybean seedlings by spot infiltration in order to determine the range of auxinic response and severity.
Spot infiltration comprises applying a compound to be tested in composition that is applied to the surface of a plant, for example, to a leaf or other plant structure. For example, a method for testing a plant response to one or more compounds using spot infiltration comprises a) providing a composition comprising one or more compounds to be tested in a container having at least an opening for the compound enter and/or exit, and one or more elements for moving the composition into or out of the container; b) contacting at least one opening of the container with the surface of a plant and moving the composition comprising one or more compounds to at least the surface of the plant. A container and elements for moving the composition may comprise a syringe body and plunger. Moving the composition to the plant surface comprises contacting the surface with pressure sufficient for the composition to enter the cells of the plant. In an aspect, spot filtration testing comprises measuring an effect of the composition on the contacted plant and comparing that measure or effect to a plant that is not contacted with the composition.
Plant response phenotypes were documented at one day post-spot infiltration and subsequently every other day, up to nine days post treatment. […] In the studies described herein below, 5 replicate treatments for each conjugate form were conducted, along with appropriate negative controls.
Examples 9 and 10 utilized a spot infiltration method for the delivery of an herbicide directly to leaves of a plant. The method generally allows for the directed delivery of a variety of agents to a localized area of a plant, e.g. localized region of leaves, for screening or assessment purposes, e.g. to quickly assess the response of a plant to the agent. As used in the foregoing examples, the spot infiltration method was used to introduce specific herbicides or specific conjugates of the herbicides to seedling plant leaves. Following introduction of the herbicide or the appropriate conjugate, plants were observed daily for nine days for characteristics of epinasty, trifoliate leaf curly, chlorosis, and new growth recovery.
Briefly, a solution of the desired agent is prepared of the desired agent, e.g. as described above in Example 10, solutions (5% EtOH) of 1, 2.5 and 5 mM IAA. The solution is then drawn into a 1 mL BD™ slip-tip syringe, bulk, non-sterile syringe (e.g. Becton, Dickinson and Company, Product No. 301025) with 100 μL markings. The desired volume is then applied to the leaf, e.g. as described in Examples 9 and 10, with the tip of the syring against the leaf and positive pressure applied to the syringe plunger. Sufficient pressure is applied in order to infuse the area beneath the syringe opening, but not so much pressure as to cause a visible-to-the-eye puncture or hole to form in the leaf. Some run-off of solution around the syringe opening is expected. In the foregoing examples, two spots were applied to each of two leaves per seedling for soybean plants. […] In soybean, both spots per leaf were at the distal portion of the leaf about 1-2 cm apart. When the method was applied to Arabidopsis, two developmentally intermediate aged leaves were chosen per plant, and one spot infiltration was carried out per leaf.

Series [2] in a line: LC-MS assay of GH3 conjugation of 2,4-D with Asp or Glu. The settings on record: 5 mM 2,4-D substrate; for kcat (hrs−1) 2,4-D-Asp: conjugation of 2,4-D with Asp by recombinant GH3 protein, 2,4-D-Asp product by LC-MS; for kcat (hrs−1) 2,4-D-Glu: conjugation of 2,4-D with Glu by recombinant GH3 protein, 2,4-D-Glu product by LC-MS. The series is classed as biochemical. Summed up:
(§1)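 Rxn: 20 mM Tris-HCl pH 8.0, 5 mM MgCl2, 1 mM DTT, 5 mM ATP, 5 mM auxin, 5 mM Asp/Glu, 44–164 μg/mL purified His-GH3; 30° C., 3 h. MeOH quench, supernatant diluted 20×, LC-MS vs conjugate standards.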

The nature of series [3]: LC-MS assay of GH3 conjugation of IAA with Asp or Glu. The series is classed as biochemical. The settings on record: for kcat (hrs−1) IAA-Asp: conjugation of IAA with Asp by recombinant GH3 protein, IAA-Asp product by LC-MS; for kcat (hrs−1) IAA-Glu: conjugation of IAA with Glu by recombinant GH3 protein, IAA-Glu product by LC-MS. In short, it runs like this:
as §1

Regarding `O=C(COc1ccc(Cl)cc1Cl)NC(Cc1ccccc1)C(=O)O` [2,4-D-Phe], the “1st trifoliate leaf curl” value in series [1] (100 μM), in series [1] (250 μM) and in series [1] (500 μM) was 0 throughout.

`O=C(Cc1c[nH]c2ccccc12)NC(Cc1ccccc1)C(=O)O` (centres unmarked) [IAA-Phe]: in series [1] (1.0 mM), the “1st trifoliate leaf curl” value was determined as 0, the “Chlorotic lesion @ app. Pnt” value was 0 and the Epinasty score was determined as 0. Moreover, in series [1] (2.5 mM), the “1st trifoliate leaf curl” value is recorded as 0, the “Chlorotic lesion @ app. Pnt” value amounted to 0 and the Epinasty score turned out to be 0. Further, in series [1] (5.0 mM), the “1st trifoliate leaf curl” value is 0, the “Chlorotic lesion @ app. Pnt” value came out at 0 and the Epinasty score came to 0. In addition, in series [1] (1, 2.5 and 5 mM, result in words), the “Plant response phenotype, soybean” value is “No discernable phenotype”. The “Lesion on leaf surface at point of application, soybean” value in series [1] (dissolved in 50% EtOH, consistent with 50% EtOH alone control) is on record as “necrotic lesion on leaf surface at point of application”.

B1: VvGH3-3: GH3 protein, accession XP_002283229 (protein, listed as Vitis vinifera)
chain: MPEAPKKSFKATGHDYCLAEKNKKALQFIEDVTTNADQVQKRVLAEILTRNAHVEYLHRHGLGGHTDRDTFKKLMPVITYEDLQPDITRIANGDTSLILCSNPISEFLTSSGTSGGERKLMPTIEEELERRSLLYSLLMPVMSQSVQGLEKGKGMYFLFIKSEAKTPGGLVARPVLTSYYKSSHFRERPYDPYTNYTSPNETILCPDSYQSMYSQMLCGLVQNKEVLRVGAVFASGFIRAIRFLEKHWTLLCRDIRTGTIDQQITDPSVREAVMRVLKPDPKLADFVEGECRKESWQGIITRLWPNTKYVDVIVTGTMSQYIPTLDYYSNDLPLVCTMYASSECYFGVNLNPLCKPSEVSYTLIPTMAYFEFLPVHRNNGTNSISVPKSLNDKEQQDLVDLVDVKLGQEYELVVTTYAGLYRYRVGDVLRVAGFKNKAPQFNFVCRKNVVLSIDSDKTDEVELQAAVKNAVNHLMPFDATLTEYTSYADTTTIPGHYVLYWELSLRGSTPIPPSVFEDCCLTVEESLNSVYRQGRVSDKSIGPLEMKIVESGTFDKLMDYAISLGASINQYKTPRCVKFAPIIELLNSRVVSNYFSPKCPKWIPGHKQWCNKN
Regarding B1, in series [2], the “kcat (hrs−1) 2,4-D-Asp” value amounted to 5.615 h⁻¹ and the “kcat (hrs−1) 2,4-D-Glu” value came to 1.602 h⁻¹. In series [3], the “kcat (hrs−1) IAA-Asp” value was determined as 1006.325 h⁻¹ and the “kcat (hrs−1) IAA-Glu” value amounted to 79.770 h⁻¹.

B2: AIGH3-17: GH3 protein, accession XP_002890761 (protein, listed as Arabidopsis lyrata)
chain: MIPSYDPNDTEAGLKLLDDLTTNAETIQQQVLHQILSQNSGTQYLRAFLDGESDKNQQSFKNKVPVVNYDDIKPFIQRIADGESYDIVSAQPITELLTSSGTSAGKPKLMPSTAEELDRKTFFYSMLVPIMNKYVNGLDEGKGMYLLFIKPEIKTPSGLMARPVLTSYYKSQHFRNRPFNKYNVYTSPDQTILCQDSKQSMYCQLLCGLVQRSHVLRVGAVFASAFLRAVKFLEDHYKELCADIRTGTVTSWITNSSCRDSVLSILNGPNQELADEIESECAEKSWEGILRRIWPKAKYVEVIVTGSMAQYIPTLEFYSGGLPLVSTMYASSECYFGINLNPLCDPADVSYTLLPNMAYFEFLPVDDKSHEEIHFASHSNTDDDDDALKEDLIVDLVNVKVGQYYEIVITTFTGLYRYRVGDILKVTGFHNKAPQFRFVQRRNVVLSIDTDKTSEEDLLNAVTQAKLNHLQHPSSLLLMEYTSYADTSSIPGHYVLFWELKPRHSNDPPKLDDKTMDDCCSEVEDCLDYVYRRCRNRDKSIGPLEIRVVSLGTFDSLMDFCVSQGSSLNQYKTPRCVKSGGALEILDSRVIGRFFSKRVPQWEPLGLDS
With B2, in series [2], the “kcat (hrs−1) 2,4-D-Asp” value was determined as 0.212 h⁻¹ and the “kcat (hrs−1) 2,4-D-Glu” value is 0.455 h⁻¹. In addition, in series [3], the “kcat (hrs−1) IAA-Asp” value is 33.508 h⁻¹ and the “kcat (hrs−1) IAA-Glu” value is 317.690 h⁻¹.

B3: VvGH3-5: GH3 protein, accession XP_002276241 (protein, listed as Vitis vinifera)
chain: MPEAPKNRGNGAGLGVEGGILDDKNIRALEFIEDVTMNAKEVQMQVLSEIITRNSNVEYLQRHGLNGRVDADTFKKIVPVVTYEDMLPDIERIANGDMSPILCSKPISEFLTSSGTSGGERKLMPTIEEELGRRSLLYSLLMPVMNQSVPGLDEGKGMYFLFVKSEAKTPGGLMARPVLTSYYKSSYFRDRPYDPYTNYTSPNETILCPDSYQSMYSQLLCGLCQNKEVLRVGAVFASGFIRAIRFLEKHWVLLCKDIRAGTLDSQINDPSVREAVKRILKPNPELADFIEAECRRESWEGIITRLWPNTKYIDVIVTGTMSQYIPTLDYYSNGLPLVCTMYASSECYFGLNLNPLCKPSEVSYTLIPTMAYFEFLPVNRKNGFTNVSESAPLNEKEHQELVDLVDVKLGQEYELVVTTYAGLYRYRVGDILCVAGFKNKAPQFKFICRKNVALSIDSDKTDEFELQNAVKNAADHLLQFDASVTEYTSYADTSTIPGHYVLYWEIGLSGATPIPPSVFEDCCLIMEESLNSVYRQGRASDKSIGPLEIRIVEGGTFDKLMDYALSQGASINQYKTPRCVKYAPIIELLNSRVVSNYFSPKCPKWVAGHKQWCT
In the case of B3, in series [2], the “kcat (hrs−1) 2,4-D-Asp” value came to 2.603 h⁻¹ and the “kcat (hrs−1) 2,4-D-Glu” value was found to be 0.974 h⁻¹. Also, in series [3], the “kcat (hrs−1) IAA-Asp” value came to 759.486 h⁻¹ and the “kcat (hrs−1) IAA-Glu” value was 47.289 h⁻¹.
